Assays:
[1] = Maximum H2O2 capacity in continuous cyclic anthraquinone process test system; conditions: compared with EAQ
Experimental: A working solution consisting of 75% by volume aromatic benzine (C9/C10-alkyl aromatic mixture), 25% by volume tris (2-ethylhexylphosphate), 0.11 mol/l 2-ethylanthraquinone, 0.29 mol/l 2-ethyltetrahydroanthraquinone, 0.13 mol/l 2-isohexylanthraquinone and 0.12 mol/l 2-isohexyltetrahydroanthraquinone was tested in a test system for the cyclic process of the anthraquinone method for producing hydrogen peroxide, consisting of the method steps of hydrogenation, oxidation, and extraction as well as of drying, regeneration and purification concerning the maximum H2O2 production capacity obtainable in continuous operation (g H2O2 produced per liter working solution). […]
The maximum H2O2 capacity of a working solution consisting of 75 by volume aromatic benzine (C9/C10-alkyl aromatic mixture), 25% by volume tris (2-ethylhexyl) phosphate, 0.12 mol/l 2-ethylanthraquinone, 0.28 mol/l 2-ethyltetrahydroanthraquinone, 0.13 mol/l 2-amylanthraquinone and 0.12 mol/l 2-amyltetrahydroanthraquinone was determined analogously to example 6. […]
The maximum H2O2 capacity of a working solution whose solvent system was based essentially on a C9/C10-aromatic benzine and tetrabutylurea (volumetric ratio AB:TBH approximately 3:1) was determined analogously to example 6 at a hydrogenation temperature of 60° C. […]

[2] = Oxidation stability of the quinone (oxygen, radical initiator, 150° C.); type: physicochemical; conditions: 0.04 mole quinone in 100 ml 1,2-dichlorobenzene, 10 mg azo-bis-isobutyronitrile, excess oxygen, after 24 h

| oxidative degradation under the conditions of the cyclic anthraquinone process [1] | SMILES | residual quinone content [2] [%] |
| --- | --- | --- |
| not degraded oxidatively more than EAQ | CC(C)=CCCc1ccc2c(c1)C(=O)c1ccccc1C2=O [IHEAQ, 2-(4-methyl-3-pentenyl) anthraquinone] | 41 |
| – | CCc1ccc2c(c1)C(=O)c1ccccc1C2=O [EAQ, 2-ethyl anthraquinone, reference compound] | 90 |

Source: US6355815B1, “Method of producing hydrogen peroxide and reaction promoters therefor” (Degussa AG, priority 1998, dated 2002)
